These results are taken from PubChem BioAssay (NCI).

Where “and” joins values, the source holds several entries; their conditions need not be identical. Identical values can stand only once.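 Protocol summary: plate cells (96-well), add compound at 5 concentrations, incubate 48 h, interpolate endpoints linearly. GI50: concentration for 50% inhibition of growth. TGI is the concentration that stops growth completely.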 Some results are limits rather than exact numbers.

Test systems include UO-31 renal; HCC-2998 colon; HL-60(TB) leukemia; SF-268 CNS; KM12 colon; A498 renal; SN12C renal; MALME-3M melanoma; SK-OV-3 ovarian; SK-MEL-5 melanoma.
Holding throughout (assay): NCI tumour cell line growth inhibition, 48 h

Take `O=c1c2ccccc2[nH]c2c(O)ccc(O)c12`: the TGI was more than 79.9 µM in the assay on UO-31 renal; more than 100 µM in the assay with HCC-2998 colon; 10.2 µM in the assay on HL-60(TB) leukemia; 76.5 µM in the assay with SF-268 CNS; more than 100 µM in the assay on KM12 colon; 96 µM with A498 renal. Also, the results for the TGI with SN12C renal, with MALME-3M melanoma and with SK-OV-3 ovarian were 28.5 µM, 59.7 µM and 65.9 µM, respectively.
In the case of `O=C(O)C1CC=CCC1C(=O)Nc1cccc(O)c1` (configuration not stated), the TGI with UO-31 renal, with HCC-2998 colon, with HL-60(TB) leukemia, in the assay with SF-268 CNS, with KM12 colon and in the assay on A498 renal was more than 100 µM throughout. For the same compound, the TGI with SN12C renal, in the assay with SK-MEL-5 melanoma, with MALME-3M melanoma and in the assay on SK-OV-3 ovarian was more than 100 µM throughout.
For the compound `c1ccc(CN2CCc3[nH]c4ccccc4c3C2)cc1`, the TGI in the assay on UO-31 renal is 79.2 µM; in the assay with HCC-2998 colon it was 30.1 µM; in the assay on HL-60(TB) leukemia, 46.3 µM; with SF-268 CNS, more than 86.8 µM; with KM12 colon, 45.9 µM; in the assay on A498 renal, 88.1 µM. Moreover, the TGI was more than 78.7 µM with SN12C renal, 31.3 µM in the assay with SK-MEL-5 melanoma, 35 µM with MALME-3M melanoma and 98.4 µM with SK-OV-3 ovarian.
Consider `O=C1Nc2cc(-c3cccc(O)c3)ccc2/C1=C/c1ccc[nH]1`, for which the GI50 is 0.359 µM in the assay on UO-31 renal; 2.03 µM in the assay on HCC-2998 colon; 1.51 µM in the assay with HL-60(TB) leukemia; 1.76 µM in the assay with SF-268 CNS; 0.225 µM in the assay with KM12 colon; 1.48 µM in the assay with A498 renal. The GI50 in the assay with SN12C renal is 1.6 µM; in the assay on SK-MEL-5 melanoma, 1.6 µM; in the assay on MALME-3M melanoma it was 1.34 µM; in the assay on SK-OV-3 ovarian, 0.655 µM. Further, the TGI with UO-31 renal is 3.78 µM; in the assay on HCC-2998 colon, 11.8 µM; in the assay with HL-60(TB) leukemia, 7.05 µM; in the assay with SF-268 CNS, 8.04 µM; with KM12 colon it was 2.52 µM; in the assay on A498 renal, 4.1 µM. For the same compound, the TGI in the assay on SN12C renal turned out to be 7.11 µM; in the assay with SK-MEL-5 melanoma it was 3.32 µM; in the assay with MALME-3M melanoma, 3.71 µM; in the assay with SK-OV-3 ovarian it was 5.22 µM.
`CC(C)c1ccc(C2NC(=S)NC3=C2c2ccccc2C3=O)cc1` (configuration not stated): the TGI is more than 58.2 µM in the assay on UO-31 renal; more than 51.7 µM in the assay with HCC-2998 colon; 32.5 µM with HL-60(TB) leukemia; more than 52.4 µM in the assay on SF-268 CNS; more than 58.7 µM in the assay on KM12 colon; more than 60.8 µM in the assay on A498 renal. Further, the TGI with SN12C renal was more than 61.4 µM; in the assay on SK-MEL-5 melanoma, 52.8 µM; in the assay on MALME-3M melanoma it was more than 62.9 µM; in the assay with SK-OV-3 ovarian it was more than 61.7 µM.
`Cc1ccc(S(=O)(=O)NC(=O)NCCc2ccccc2)cc1`: the TGI with UO-31 renal, in the assay on HCC-2998 colon, in the assay with HL-60(TB) leukemia, with SF-268 CNS, in the assay on KM12 colon and with A498 renal was more than 100 µM each time. In addition, the TGI in the assay on SN12C renal, in the assay with SK-MEL-5 melanoma, in the assay with MALME-3M melanoma and in the assay on SK-OV-3 ovarian was more than 100 µM each time.
`O=[N+]([O-])c1cccc(-c2nc(-c3ccc(Cl)cc3Cl)cn2-c2ccccc2)c1`: the GI50 is 1.19 µM in the assay with UO-31 renal; 2.99 µM with HCC-2998 colon; more than 33.3 µM with HL-60(TB) leukemia; 1.14 µM in the assay on SF-268 CNS; 0.573 µM with KM12 colon; 1.19 µM in the assay with SN12C renal. Moreover, the GI50 in the assay with SK-MEL-5 melanoma was 6.78 µM; in the assay on MALME-3M melanoma it was 0.704 µM; with SK-OV-3 ovarian it was 3.06 µM. The TGI with UO-31 renal was 7.29 µM; in the assay with HCC-2998 colon, more than 17.6 µM; with HL-60(TB) leukemia, more than 33.3 µM; in the assay with SF-268 CNS it was 5.5 µM; with KM12 colon it was 1.22 µM; with A498 renal, more than 9.06 µM. The TGI with SN12C renal is more than 7.91 µM; in the assay on SK-MEL-5 melanoma, more than 33.3 µM; in the assay with MALME-3M melanoma, 2.11 µM; in the assay with SK-OV-3 ovarian, 29.9 µM.
As for `CN1CCN(c2ccc(OC(F)(F)F)c(Nc3ncc4c(n3)-c3c(c(C(N)=O)nn3CCO)CC4)c2)CC1`, the GI50 with UO-31 renal was 2.88 µM and 2.28 µM; with HCC-2998 colon, 0.0487 µM and 0.174 µM; in the assay with HL-60(TB) leukemia, 0.0237 µM and 0.0298 µM; in the assay with SF-268 CNS, 0.0661 µM and 0.229 µM; with KM12 colon, 0.0328 µM and 0.0354 µM; in the assay with A498 renal, 0.0469 µM and 0.101 µM. Moreover, the GI50 was 1.13 µM and 0.721 µM with SN12C renal; 0.106 µM and 0.309 µM with SK-MEL-5 melanoma; 0.108 µM and 0.124 µM in the assay with SK-OV-3 ovarian. The TGI in the assay on UO-31 renal was 38.2 µM and > 9.18 µM; in the assay on HCC-2998 colon, 18.7 µM and > 4.38 µM; in the assay on HL-60(TB) leukemia, 0.0744 µM; in the assay with SF-268 CNS it was 20.3 µM and > 10 µM; in the assay on KM12 colon, 35.4 µM and > 10 µM; in the assay on A498 renal, 0.638 µM and 0.588 µM. The TGI in the assay with SN12C renal is 20.7 µM and > 10 µM; in the assay with SK-MEL-5 melanoma it was 16.7 µM and > 10 µM; in the assay with MALME-3M melanoma it was 29.8 µM and > 10 µM; with SK-OV-3 ovarian it was 30.6 µM and > 10 µM.
On to `O=C1CC[C@H](N2Cc3c(OCc4ccc(CN5CCOCC5)cc4)cccc3C2=O)C(=O)N1`, for which the GI50 is more than 100 µM with UO-31 renal; more than 100 µM in the assay on HCC-2998 colon; 77.6 µM in the assay on HL-60(TB) leukemia; more than 100 µM with SF-268 CNS; more than 100 µM in the assay on KM12 colon; more than 100 µM with A498 renal. Besides, the GI50 in the assay on SN12C renal, with SK-MEL-5 melanoma, in the assay with MALME-3M melanoma and in the assay on SK-OV-3 ovarian was more than 100 µM throughout. For the same compound, the TGI in the assay with UO-31 renal, in the assay with HCC-2998 colon, in the assay on HL-60(TB) leukemia, in the assay on SF-268 CNS, with KM12 colon and with A498 renal was more than 100 µM each time. Besides, the TGI in the assay with SN12C renal, in the assay with SK-MEL-5 melanoma, with MALME-3M melanoma and in the assay on SK-OV-3 ovarian was more than 100 µM each time.
Regarding `Cc1ccc(C(=O)NCCCOc2ccc(N3C(N)=NC(N)=NC3(C)C)cc2Cl)cc1S(=O)(=O)F`, the GI50 with UO-31 renal is more than 100 µM; in the assay on HCC-2998 colon, 24 µM; with HL-60(TB) leukemia, more than 100 µM; in the assay on SF-268 CNS, 10.7 µM; in the assay on KM12 colon, 39 µM; in the assay on A498 renal, more than 100 µM. In addition, the GI50 is 6.54 µM in the assay on SN12C renal, 4.78 µM in the assay on SK-MEL-5 melanoma, more than 100 µM in the assay with MALME-3M melanoma and more than 100 µM in the assay with SK-OV-3 ovarian. Moreover, the TGI with UO-31 renal, in the assay with HCC-2998 colon, in the assay on HL-60(TB) leukemia, in the assay with SF-268 CNS, in the assay with KM12 colon and in the assay with A498 renal was more than 100 µM throughout. The TGI in the assay on SN12C renal, in the assay with SK-MEL-5 melanoma, in the assay with MALME-3M melanoma and in the assay on SK-OV-3 ovarian was more than 100 µM each time.
